For test [1], the target named is T1, human Cereblon WT GST-tagged protein (Homo sapiens, UniProt Q96SW2).
T1 construct: purchased CISBIO 64BDCRBNPEH
In words: CRBN-binding affinity, HTRF (CEREBLON BINDING kit). The conditions noted are these: displacement of Thalidomide-Re reagent, 3 hours at room temperature. The procedure, abridged: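 Compounds displace a thalidomide-Re tracer from GST-tagged human Cereblon WT, detected with an Eu-labelled anti-GST antibody by time-resolved fluorescence. Signal at 620 nm was normalised against solvent and blank controls.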
(In general: TR-FRET usually uses a lanthanide donor and a delayed reading to cut background.)

In the next test the target is T2, IKZF3 (Homo sapiens, UniProt Q96SW2+Q9UKT9).
T2 construct: endogenous in cells; host or cells: human PBMCs (Milecell Biotechnologies)
T2 sequence (Q9UKT9 whole entry): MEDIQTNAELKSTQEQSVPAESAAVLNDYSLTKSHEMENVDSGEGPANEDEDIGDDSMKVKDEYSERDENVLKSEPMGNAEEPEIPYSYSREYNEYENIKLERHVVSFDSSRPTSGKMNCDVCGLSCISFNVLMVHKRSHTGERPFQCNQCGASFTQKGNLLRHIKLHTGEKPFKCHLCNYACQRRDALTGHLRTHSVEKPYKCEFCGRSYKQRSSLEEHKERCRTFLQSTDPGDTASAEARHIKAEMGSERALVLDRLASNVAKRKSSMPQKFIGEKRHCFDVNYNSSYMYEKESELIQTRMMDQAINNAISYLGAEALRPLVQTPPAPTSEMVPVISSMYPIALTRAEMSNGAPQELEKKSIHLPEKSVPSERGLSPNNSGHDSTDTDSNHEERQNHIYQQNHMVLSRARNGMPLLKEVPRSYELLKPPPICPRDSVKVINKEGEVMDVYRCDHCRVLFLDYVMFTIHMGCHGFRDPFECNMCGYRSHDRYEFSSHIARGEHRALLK
T2 sequence (Q96SW2 whole entry): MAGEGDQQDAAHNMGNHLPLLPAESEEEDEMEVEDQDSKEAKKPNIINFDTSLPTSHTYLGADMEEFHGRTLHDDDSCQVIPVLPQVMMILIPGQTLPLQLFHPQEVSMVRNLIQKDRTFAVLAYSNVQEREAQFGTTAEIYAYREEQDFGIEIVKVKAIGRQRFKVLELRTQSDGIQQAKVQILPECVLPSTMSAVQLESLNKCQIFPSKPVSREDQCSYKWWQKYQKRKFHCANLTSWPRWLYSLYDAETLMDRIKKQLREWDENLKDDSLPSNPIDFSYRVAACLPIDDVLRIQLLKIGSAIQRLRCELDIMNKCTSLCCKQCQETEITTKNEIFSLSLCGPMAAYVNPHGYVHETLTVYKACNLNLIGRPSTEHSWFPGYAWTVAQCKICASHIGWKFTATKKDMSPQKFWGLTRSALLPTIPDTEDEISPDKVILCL
T2 sequence (Q16531 whole entry partner): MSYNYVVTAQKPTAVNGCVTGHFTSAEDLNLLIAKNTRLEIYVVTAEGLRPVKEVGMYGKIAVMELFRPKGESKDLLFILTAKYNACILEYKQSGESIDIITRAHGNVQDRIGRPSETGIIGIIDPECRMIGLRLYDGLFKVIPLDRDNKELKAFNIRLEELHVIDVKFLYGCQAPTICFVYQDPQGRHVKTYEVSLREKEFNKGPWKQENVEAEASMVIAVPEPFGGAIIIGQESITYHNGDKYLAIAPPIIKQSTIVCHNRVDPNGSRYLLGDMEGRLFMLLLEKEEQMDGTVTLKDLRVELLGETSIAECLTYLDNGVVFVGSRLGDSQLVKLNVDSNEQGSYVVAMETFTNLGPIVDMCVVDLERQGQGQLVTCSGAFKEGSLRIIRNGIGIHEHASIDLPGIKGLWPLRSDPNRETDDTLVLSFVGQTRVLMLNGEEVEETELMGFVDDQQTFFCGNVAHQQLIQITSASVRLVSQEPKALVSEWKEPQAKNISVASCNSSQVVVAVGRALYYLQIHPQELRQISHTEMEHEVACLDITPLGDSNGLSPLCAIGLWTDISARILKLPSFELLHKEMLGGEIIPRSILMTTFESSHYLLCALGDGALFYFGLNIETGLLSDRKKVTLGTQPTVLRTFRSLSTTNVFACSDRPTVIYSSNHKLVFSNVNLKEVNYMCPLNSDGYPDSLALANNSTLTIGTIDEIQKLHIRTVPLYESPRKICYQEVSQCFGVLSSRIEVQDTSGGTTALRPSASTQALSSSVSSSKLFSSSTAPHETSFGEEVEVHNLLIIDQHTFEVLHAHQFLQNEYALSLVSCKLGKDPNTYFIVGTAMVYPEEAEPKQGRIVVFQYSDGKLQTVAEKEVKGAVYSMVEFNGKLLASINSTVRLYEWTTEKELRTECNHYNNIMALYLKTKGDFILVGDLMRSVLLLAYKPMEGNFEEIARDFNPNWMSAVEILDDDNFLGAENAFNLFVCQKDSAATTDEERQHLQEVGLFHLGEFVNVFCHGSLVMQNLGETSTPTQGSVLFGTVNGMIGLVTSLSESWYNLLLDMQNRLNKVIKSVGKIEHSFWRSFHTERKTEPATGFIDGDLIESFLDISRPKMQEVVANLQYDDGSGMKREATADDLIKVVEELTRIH
As to the kind of experiment: Western-blot assay, substrate protein in hPBMCs. The test is classed as cell-based. To be noted: hPBMC cells, 24 hours, tested at 50 nM and 500 nM, table does not say which. How it is done: The effect of the compounds of the present disclosure on the expression of target proteins in cells was detected using conventional Western blot analysis.
Human peripheral blood mononuclear cells (hPBMCs) at a density of 1×10^6 cells/mL were thawed according to the PBMC Recovery Protocol (Milecell Biotechnologies Inc, Shanghai). The cells were then treated with the compounds of the present disclosure (including the compounds listed in Tables 1 and 2, and the Examples A1-A20 and 1-116 compounds) at concentrations of 50 nM and 500 nM.
Controls included a negative control (DMSO) and a positive control (the commercial immunomodulatory drug lenalidomide), both processed following the identical experimental protocol as the compounds of the present disclosure. After 24 hours of compounds treatment, cells were harvested and lysed in RIPA protein lysate containing phosphatase inhibitors on ice for 30-60 min, followed by centrifugation. The supernatant was aspirated as the extracted total cell protein. The protein concentration of the supernatant was determined using the conventional BCA (Bicinchoninic Acid) assay. The supernatant was then mixed with 4× SDS sample loading buffer, denatured at 95° C. for 5 minutes, and then subjected to SDS-PAGE electrophoresis on a polyacrylamide gel. Proteins were then transferred to a nitrocellulose (NC) membrane, blocked at room temperature for 1-2 h, and processed for antibody incubation and detection according to the manufacturer's instructions (Cell Signaling Technology).
Half-Maximal Degradation Concentration value (the drug concentration required for degrading proteins by 50%, abbreviated as DC50) reads method: comparing the grayscale values of Western blot bands from drug-treated samples with those from blank DMSO-treated controls, and identifying the drug concentration range at which the grayscale value is half that of the DMSO-treated control bands.
DC50 values can be calculated using ImageJ software to measure grayscale values of Western blot bands from drug-treated samples. The concentration-response curve is fitted to estimate the drug concentration corresponding to half the grayscale value.
Target protein remaining (%) refers to the percentage of target protein remaining in hPBMC cells after treatment with protein degrader compounds.
Calculation method for protein remaining (%): Use ImageJ software to measure grayscale values of Western blot bands from drug (protein degrader)-treated samples. The grayscale value of drug-treated bands is divided by that of internal control protein bands, and the resulting quotient is normalized to obtain the relative percentage of remaining target protein after protein degrader treatment.
Target protein degradation rate (%)=100%−target protein remaining (%).

The target of the next test is T3, GSPT1 (Homo sapiens, UniProt P15170+Q96SW2).
T3 construct: endogenous in cells; host or cells: human PBMCs (Milecell Biotechnologies)
T3 sequence (P15170 whole entry): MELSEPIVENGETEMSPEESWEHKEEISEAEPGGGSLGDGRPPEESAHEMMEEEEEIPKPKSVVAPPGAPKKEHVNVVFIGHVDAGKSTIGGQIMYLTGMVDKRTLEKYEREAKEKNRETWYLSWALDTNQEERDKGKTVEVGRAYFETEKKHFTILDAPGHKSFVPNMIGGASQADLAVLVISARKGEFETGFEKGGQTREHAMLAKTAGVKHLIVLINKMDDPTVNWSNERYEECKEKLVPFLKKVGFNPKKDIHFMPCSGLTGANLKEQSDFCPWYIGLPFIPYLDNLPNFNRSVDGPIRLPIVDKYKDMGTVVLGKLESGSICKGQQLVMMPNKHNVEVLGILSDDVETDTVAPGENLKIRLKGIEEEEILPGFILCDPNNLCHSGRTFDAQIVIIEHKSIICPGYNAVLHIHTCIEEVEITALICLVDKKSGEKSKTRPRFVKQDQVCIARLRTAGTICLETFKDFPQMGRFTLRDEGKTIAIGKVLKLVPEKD
T3 sequence (Q96SW2 whole entry): as the sequence (Q96SW2 whole entry) above
T3 sequence (Q16531 whole entry partner): as the sequence (Q16531 whole entry partner) above
In words: Western-blot assay, substrate protein in hPBMCs. To be noted: hPBMC cells, 24 hours, tested at 50 nM and 500 nM, table does not say which. The test is classed as cell-based. An outline of the steps: (§1)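 Cellular protein levels after a 24 h degrader treatment of human PBMCs were assessed by Western blot densitometry relative to an internal control. Results are expressed as % remaining, % degraded, or DC50 versus DMSO-treated cells.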

A further test concerns the target T4, Wee1 (Homo sapiens, UniProt P30291+Q96SW2).
T4 construct: endogenous in cells; host or cells: human PBMCs (Milecell Biotechnologies)
As to the kind of experiment: Western-blot assay, substrate protein in hPBMCs. The format is cell-based. To be noted: hPBMC cells, 24 hours, tested at 50 nM and 500 nM, table does not say which. The procedure, abridged: as §1

In a further test the target is T5, IKZF2 (Homo sapiens, UniProt Q96SW2+Q9UKS7).
T5 construct: endogenous in cells; host or cells: human PBMCs (Milecell Biotechnologies)
T5 sequence (Q9UKS7 whole entry): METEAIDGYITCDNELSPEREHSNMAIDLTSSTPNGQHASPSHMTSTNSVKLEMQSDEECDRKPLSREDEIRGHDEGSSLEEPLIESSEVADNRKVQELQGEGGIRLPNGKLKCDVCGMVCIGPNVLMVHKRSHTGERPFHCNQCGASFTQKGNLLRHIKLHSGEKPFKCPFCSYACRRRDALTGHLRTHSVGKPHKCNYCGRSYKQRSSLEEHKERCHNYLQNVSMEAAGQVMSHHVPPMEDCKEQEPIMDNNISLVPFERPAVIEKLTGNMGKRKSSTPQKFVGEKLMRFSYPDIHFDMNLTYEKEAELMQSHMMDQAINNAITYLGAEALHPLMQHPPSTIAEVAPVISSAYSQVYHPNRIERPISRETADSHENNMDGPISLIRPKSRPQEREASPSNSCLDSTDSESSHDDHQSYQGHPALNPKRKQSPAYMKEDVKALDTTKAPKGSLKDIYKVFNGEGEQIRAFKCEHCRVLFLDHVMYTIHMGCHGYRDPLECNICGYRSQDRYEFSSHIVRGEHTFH
T5 sequence (Q96SW2 whole entry): as the sequence (Q96SW2 whole entry) above
T5 sequence (Q16531 whole entry partner): as the sequence (Q16531 whole entry partner) above
In words: Western-blot assay, substrate protein in hPBMCs. The format is cell-based. The conditions noted are these: hPBMC cells, 24 hours, tested at 50 nM and 500 nM, table does not say which. An outline of the steps:
as §1

For another test, the target named is T6, CK1α (Homo sapiens, UniProt P48729+Q96SW2).
T6 construct: endogenous in cells; host or cells: human PBMCs (Milecell Biotechnologies)
T6 sequence (P48729 whole entry): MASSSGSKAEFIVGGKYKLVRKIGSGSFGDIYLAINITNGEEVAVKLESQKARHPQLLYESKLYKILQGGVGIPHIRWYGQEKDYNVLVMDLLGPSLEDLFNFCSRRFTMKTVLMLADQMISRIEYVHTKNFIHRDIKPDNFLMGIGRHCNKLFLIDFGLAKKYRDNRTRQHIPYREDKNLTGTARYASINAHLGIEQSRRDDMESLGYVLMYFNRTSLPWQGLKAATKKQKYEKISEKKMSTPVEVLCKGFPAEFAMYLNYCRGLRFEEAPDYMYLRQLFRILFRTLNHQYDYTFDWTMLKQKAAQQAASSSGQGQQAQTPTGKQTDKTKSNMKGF
T6 sequence (Q96SW2 whole entry): as the sequence (Q96SW2 whole entry) above
T6 sequence (Q16531 whole entry partner): as the sequence (Q16531 whole entry partner) above
In words: Western-blot assay, substrate protein in hPBMCs. The test is classed as cell-based. To be noted: hPBMC cells, 24 hours, tested at 50 nM and 500 nM, table does not say which. An outline of the steps:
as §1

A value given as a limit tells only on which side of the number the result lay.

T1 sequence (Q96SW2 whole entry): as the sequence (Q96SW2 whole entry) above
T4 sequence (P30291 whole entry): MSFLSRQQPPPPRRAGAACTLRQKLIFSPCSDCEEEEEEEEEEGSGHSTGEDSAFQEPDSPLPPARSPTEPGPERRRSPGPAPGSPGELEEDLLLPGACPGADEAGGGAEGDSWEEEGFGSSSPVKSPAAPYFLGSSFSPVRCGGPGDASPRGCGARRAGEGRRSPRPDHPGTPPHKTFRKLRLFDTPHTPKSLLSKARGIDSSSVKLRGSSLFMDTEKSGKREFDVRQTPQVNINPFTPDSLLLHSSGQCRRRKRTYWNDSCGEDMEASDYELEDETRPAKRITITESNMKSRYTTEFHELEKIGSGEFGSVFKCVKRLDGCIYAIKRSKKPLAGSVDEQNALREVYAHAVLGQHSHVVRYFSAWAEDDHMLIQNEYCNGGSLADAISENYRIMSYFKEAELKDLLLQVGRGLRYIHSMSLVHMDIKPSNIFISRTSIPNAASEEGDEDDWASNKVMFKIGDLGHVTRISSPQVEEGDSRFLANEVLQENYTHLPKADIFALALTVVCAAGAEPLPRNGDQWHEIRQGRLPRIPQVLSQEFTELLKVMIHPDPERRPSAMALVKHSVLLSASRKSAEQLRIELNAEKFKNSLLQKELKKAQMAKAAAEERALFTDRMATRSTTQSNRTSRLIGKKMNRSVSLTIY
T4 sequence (Q96SW2 whole entry): as the sequence (Q96SW2 whole entry) above
T4 sequence (Q16531 whole entry partner): as the sequence (Q16531 whole entry partner) above

`O=C1CCC(N2Cc3cc(SC4CCN(C(=O)c5ccccc5-c5ccc(Cl)cc5)C4)ccc3C2=O)C(=O)N1` (stereo not shown) [GT-06181, 3-(5-((1-(4′-chloro-[1,1′-biphenyl]-2-carbonyl)pyrrolidin-3-yl)thio)-1-oxoisoindolin-2-yl)piperidine-2,6-dione]: in test [1], the IC50 (as a rule, the concentration at which inhibition is half-maximal) is under 500 nM. Also, the “substrate protein remaining %” value at IKZF3, on GSPT1 and at Wee1 was “A (0%≤ substrate protein remaining % ≤80%)” in each case.

In test [1], `O=C1CCC(N2Cc3cc(OC4CN(C(c5ccccc5)c5ccccc5)C4)ccc3C2=O)C(=O)N1` (stereo not shown) [GT-06185, 3-(5-((1-benzhydrylazetidin-3-yl)oxy)-1-oxoisoindolin-2-yl)piperidine-2,6-dione] returned a 50% inhibitory concentration (IC50) of under 500 nM. Also, the “substrate protein remaining %” value on IKZF3, on GSPT1 and at IKZF2 was “A (0%≤ substrate protein remaining % ≤80%)” in each case.

Consider `O=C1CCC(N2Cc3cc(SC4CN(CC5=C(c6ccc(Cl)cc6)CCC(F)(F)C5)C4)ccc3C2=O)C(=O)N1` (stereo not shown) [GT-06516, 3-(5-((1-((4′-chloro-4,4-difluoro-3,4,5,6-tetrahydro-[1,1′-biphenyl]-2-yl)methyl)azetidin-3-yl)thio)-1-oxoisoindolin-2-yl)piperidine-2,6-dione], for which the concentration for half-maximal inhibition (IC50) in test [1] fell in the range of 1000 to 1900 nM. Besides, the “substrate protein remaining %” value on IKZF3, at GSPT1, on IKZF2, at CK1α and at Wee1 was “A (0%≤ substrate protein remaining % ≤80%)” throughout.

In test [1], `O=C1CCC(N2Cc3cc(OC4CN(CC5=C(c6ccc(F)cc6)CCOC5)C4)ccc3C2=O)C(=O)N1` (stereo not shown) [GT-06560, 3-(5-((1-((4-(4-fluorophenyl)-5,6-dihydro-2H-pyran-3-yl)methyl)azetidin-3-yl)oxy)-1-oxoisoindolin-2-yl)piperidine-2,6-dione] returned an IC50 of 500 to 1000 nM. The “substrate protein remaining %” value at IKZF3 and on Wee1 was “A (0%≤ substrate protein remaining % ≤80%)” each time.

Turning to `O=C1CCC(N2Cc3cc(OC4CN(C(c5ccccn5)c5ccccn5)C4)ccc3C2=O)C(=O)N1` (stereo not shown) [GT-06814, 3-(5-((1-(di(pyridin-2-yl)methyl)azetidin-3-yl)oxy)-1-oxoisoindolin-2-yl)piperidine-2,6-dione], in test [1], the IC50 was under 500 nM. Besides, the “substrate protein remaining %” value on IKZF3, on GSPT1, on IKZF2, on CK1α and at Wee1 was “A (0%≤ substrate protein remaining % ≤80%)” throughout.

Take `O=C1CCC(N2Cc3cc(OC4CCN(Cc5ccccc5-c5ccc(Cl)cc5)C4)ccc3C2=O)C(=O)N1` (stereo not shown) [GT-06817, 3-(5-((1-((4′-chloro-[1,1′-biphenyl]-2-yl)methyl)pyrrolidin-3-yl)oxy)-1-oxoisoindolin-2-yl)piperidine-2,6-dione]: the IC50 in test [1] was 500 to 1000 nM. Further, the “substrate protein remaining %” value on IKZF3, at GSPT1, at IKZF2, at CK1α and at Wee1 was “A (0%≤ substrate protein remaining % ≤80%)” each time.

In turn, `O=C1CCC(N2Cc3cc(OC4CCN(C(c5ccccc5)c5ccccc5)C4)ccc3C2=O)C(=O)N1` (stereo not shown) [GT-06819, 3-(5-((1-benzhydrylpyrrolidin-3-yl)oxy)-1-oxoisoindolin-2-yl)piperidine-2,6-dione] had an IC50 in test [1] of under 500 nM. The “substrate protein remaining %” value on IKZF3, at GSPT1, on IKZF2, on CK1α and at Wee1 was “A (0%≤ substrate protein remaining % ≤80%)” in each case.

The molecule `CC1(C)CCC(CN2CCCC(Oc3ccc4c(c3)CN(C3CCC(=O)NC3=O)C4=O)CC2)=C(c2ccc(Cl)cc2)C1` (stereo not shown) [GT-06929, 3-(5-((1-((4′-chloro-5,5-dimethyl-3,4,5,6-tetrahydro-[1,1′-biphenyl]-2-yl)methyl)azepan-4-yl)oxy)-1-oxoisoindolin-2-yl)piperidine-2,6-dione] displayed an IC50 in test [1] of 500 to 1000 nM. In addition, the “substrate protein remaining %” value at IKZF3, at IKZF2 and at Wee1 was “A (0%≤ substrate protein remaining % ≤80%)” throughout.

In test [1], `O=C1CCC(N2Cc3cc(SC4CCC5(CC4)CCN(C(c4ccccc4)c4ccccc4)CC5)ccc3C2=O)C(=O)N1` (stereo not shown) [GT-06958, 3-(5-((3-benzhydryl-3-azaspiro[5.5]undecan-9-yl)thio)-1-oxoisoindolin-2-yl)piperidine-2,6-dione] registered a half-inhibitory concentration (IC50) of under 500 nM. The “substrate protein remaining %” value at IKZF3, at GSPT1, on CK1α and on Wee1 was “A (0%≤ substrate protein remaining % ≤80%)” each time.

Turning to `COc1ccc(C(c2ccc(OC)cc2)N2CC(Oc3ccc4c(c3)CN(C3CCC(=O)NC3=O)C4=O)C2)cc1` (stereo not shown) [GT-06959, 3-(5-((1-(bis(4-methoxyphenyl)methyl)azetidin-3-yl)oxy)-1-oxoisoindolin-2-yl)piperidine-2,6-dione], the IC50 in test [1] is under 500 nM. The “substrate protein remaining %” value at IKZF3, at GSPT1, at CK1α and on Wee1 was “A (0%≤ substrate protein remaining % ≤80%)” throughout.

Turning to `CC1(C)CCC(C(=O)N2C[C@H]3CC(Sc4ccc5c(c4)CN(C4CCC(=O)NC4=O)C5=O)C[C@H]3C2)=C(c2ccc(Cl)cc2)C1` (stereo partly drawn) [GT-07015, 3-(5-(((3aR,6aS)-2-(4′-chloro-5,5-dimethyl-3,4,5,6-tetrahydro-[1,1′-biphenyl]-2-carbonyl)octahydro-cyclopenta[c]pyrrol-5-yl)thio)-1-oxoisoindolin-2-yl)piperidine-2,6-dione], the IC50 in test [1] is 500 to 1000 nM. Moreover, the “substrate protein remaining %” value on IKZF3 and on IKZF2 was “A (0%≤ substrate protein remaining % ≤80%)” throughout.

Turning to `CC1(C)CCC(C(=O)N2C[C@H]3CC(Sc4ccc5c(c4)CN(C4CCC(=O)NC4=O)C5=O)C[C@@H]3C2)=C(c2ccc(Cl)cc2)C1` (stereo partly drawn) [GT-07022, 3-(5-(((3aS,6aS)-2-(4′-chloro-5,5-dimethyl-3,4,5,6-tetrahydro-[1,1′-biphenyl]-2-carbonyl)octahydro-cyclopenta[c]pyrrol-5-yl)thio)-1-oxoisoindolin-2-yl)piperidine-2,6-dione], the IC50 in test [1] lay in the range of 500 to 1000 nM. Besides, the “substrate protein remaining %” value on IKZF3 and at CK1α was “A (0%≤ substrate protein remaining % ≤80%)” throughout.

For the origin of these results see US20260207578A1, “COMPOUND BASED ON SULFUR/OXYGEN SUBSTITUTED GLUTARIMIDE-BASED ISOINDOLINONE SKELETON AND USE THEREOF” (Gluetacs Therapeutics (Shanghai) Co., LTD., priority 2022, published 2026).
